Assay results taken from US9463210B1, “Method for alleviating cravings and discomfort associated with smoking cessation8” (priority 2015, dated 2016).
Where two headings read alike, the source gives them in different places.

Key:
[1] = oral intakes up to 4.6 grams per day; cited from earlier work
[2] = tested on: mouse microglial cell line MG6; conditions: cited from earlier work
[3] = tested on: Kuming mice; conditions: acute toxicity study; cited from earlier work
[4] = molecular target: acetylcholinesterase (AChE) (Homo sapiens, UniProt P22303); conditions: colorimetric method; cited from earlier work
Sequence of acetylcholinesterase (AChE) (P22303 32-614, species assumed): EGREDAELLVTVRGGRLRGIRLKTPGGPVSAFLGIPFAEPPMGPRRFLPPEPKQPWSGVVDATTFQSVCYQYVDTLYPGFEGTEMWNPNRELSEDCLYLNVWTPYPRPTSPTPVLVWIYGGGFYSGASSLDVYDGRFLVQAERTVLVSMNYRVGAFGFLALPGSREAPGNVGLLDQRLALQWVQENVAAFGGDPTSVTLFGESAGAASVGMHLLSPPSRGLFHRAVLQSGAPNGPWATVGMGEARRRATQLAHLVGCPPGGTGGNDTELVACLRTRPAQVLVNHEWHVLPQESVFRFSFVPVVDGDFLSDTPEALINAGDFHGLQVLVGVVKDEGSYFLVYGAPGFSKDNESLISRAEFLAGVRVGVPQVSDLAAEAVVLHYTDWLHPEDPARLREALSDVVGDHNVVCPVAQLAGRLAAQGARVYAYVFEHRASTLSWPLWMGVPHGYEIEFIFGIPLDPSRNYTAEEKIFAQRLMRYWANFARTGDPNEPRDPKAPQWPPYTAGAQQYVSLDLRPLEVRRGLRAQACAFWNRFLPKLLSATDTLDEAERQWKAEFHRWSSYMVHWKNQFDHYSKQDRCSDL

[5] = tested on: diabetic and at-risk-of-diabetes patients; conditions: 1.5 to 3 g daily for several years; cited from earlier work
[6] = tested on: mouse endothelial cells; conditions: cited from earlier work
[7] = tested on: mouse; conditions: cited from earlier work
[8] = tested on: Rat; conditions: cited from earlier work
[9] = tested on: isolated rat lungs; conditions: dose-dependent; cited from earlier work
[10] = cited from earlier work; for half-life: oral
[11] = tested on: NO production; conditions: cited from earlier work
[12] = tested on: NF-κB pathway; conditions: cited from earlier work
[13] = tested on: mice ear edema; conditions: cited from earlier work
[14] = cited from earlier work
[15] = tested on: Dopamine beta-hydroxylase (DBH) mRNA in PC12 cells; conditions: cited from earlier work
[16] = tested on: tyrosine hydroxylase (TH) mRNA in PC12 cells; conditions: cited from earlier work
[17] = tested on: Rat; conditions: in vivo; cited from earlier work
[18] = Human equivalent dose estimate of the forskolin LD50 (Reagan-Shaw)

Q: Which tolerability [1] does the source give for phosphatidylcholine [PC] here?
A: very well tolerated

Q: Which results are given for `CC(C)c1cc2c(c(O)c1O)[C@@]1(C(=O)O)CCCC(C)(C)[C@@H]1CC2` [carnosic acid]?
A: NO production ([2]; associated with decrease in inducible NO synthase): inhibited; cell survival ([2]; at the concentrations used): Neither CA nor LPS affected cell survival; LPS-induced activation of MG6 cells ([2]; in vitro): inhibited; oral lethal dose (LD50) [3]: 7100 mg/kg of body weight

Q: With `CC1=CCC2C(C1)C2(C)C` (single isomer, unassigned; (+)) [(+)-3-carene] as the molecule, how does the “Inhibition of AChE” value [4] read?
A: potent inhibitors

Q: Which “Inhibition of AChE” value [4] does the source give for `CC1=CC[C@@H]2C[C@H]1C2(C)C` [(+)-alpha-pinene] here?
A: potent inhibitors

Q: Which “effect on biochemical parameters including liver and kidney function tests” value [5] does the source give for `NC(=O)c1cccnc1` [niacinamide, nicotinamide] here?
A: no effect

Q: And the “SEB-induced endothelial NO production” value ([6]; IFN-primed endothelial cells)?
A: significantly reduced

Q: What about the “IFN-gamma induction of endothelial class II MHC surface antigen” value [6] of the same molecule?
A: markedly reduced

Q: And the “iNOS mRNA levels” value [6]?
A: reduced

Q: And the LD50 [7]?
A: 2500 mg/kg

Q: And the LD50 [8]?
A: 3500 mg/kg

Q: What about the “PMA-induced pathophysiological and biochemical changes (acute lung injury)” value [9] of the same molecule?
A: diminished

Q: And the “half-life cautiously assumed for humans” value ([10]; agreement of both studies)?
A: 4 h

Q: What about the “effect on blood pressure, pulse or body temperature” value ([10]; human, oral doses of 1-6 g) of the same molecule?
A: no detectable effect

Q: What about the half-life ([10]; human, 1-g dose) of the same molecule?
A: ~1.5 h

Q: What about the half-life ([10]; human, 2 g) of the same molecule?
A: ~4 h

Q: And the half-life ([10]; human, 4 and 6 g)?
A: 7 to 9 h

Q: Which results are given for `CC(C)=CCCC(C)=CC=O` [citral]?
A: NO production inhibitory activity, IC50 [11]: 13.18 µg/mL; activity on COX-2 [12]: could not efficiently suppress; expression of IKK, iNOS, and nuclear NF-κB ([12]; dose-dependent): decreased; inflammation reduction, ear edema ([13]; 0.1 mg per ear): 22%; inflammation reduction, ear edema ([13]; 0.3 mg per ear): 83%

Q: For `CNCC(=O)O` [sarcosine, N-methylglycine], which safety ([14]; 2 and 4 gm/d for one week) is on record?
A: appears to be safe

Q: And the “time to peak concentration in serum” value ([14]; human, 2 and 4 gm/d)?
A: two

Q: Which “increase of DBH mRNA levels” value [15] does the source give for `CN1CCCC1c1cccnc1` (centres unmarked) [Nicotine] here?
A: 3.1 fold

Q: And the “increase of TH mRNA levels” value [16]?
A: 3.3 fold

Q: With `C=C[C@@]1(C)CC(=O)[C@]2(O)[C@@]3(C)[C@@H](O)CCC(C)(C)[C@@H]3[C@H](O)[C@H](OC(C)=O)[C@@]2(C)O1` [forskolin] as the molecule, how does the “oral LD50 (rat)” value [17] read?
A: 2,550 mg/kg

Q: What about the “estimated LD50 in a person” value ([18]; 100 pound (45.4 Kg) person) of the same molecule?
A: 18,773.51 mg

Q: What about the LD50 ([18]; rat, oral, 2550×(6/37), Reagan-Shaw, read-out: HED of the rat LD50) of the same molecule?
A: 413 mg/kg

Q: Which “Inhibition of AChE” value [4] does the source give for `CC1=CC[C@H]2C[C@@H]1C2(C)C` [(−)-alpha-pinene] here?
A: potent inhibitors

B1: interleukin-10: interleukin-10 (protein, UniProt P22301 19-178, looked up)
Interleukin-10: SPGQGTQSENSCTHFPGNLPNMLRDLRDAFSRVKTFFQMKDQLDNLLLKESLLEDFKGYLGCQALSEMIQFYLEEVMPQAENQDPDIKAHVNSLGENLKTLRLRLRRCHRFLPCENKSKAVEQVKNAFNKLQEKGIYKAMSEFDIFINYIEAYMTMKIRN
Q: Which results are given for B1?
A: IFN-gamma induction of endothelial class II MHC surface antigen [6]: no effect; SEB-induced endothelial NO production [6]: significantly reduced; iNOS mRNA levels [6]: did not consistently reduce
